Measured values published in patent publication US11420961B2, “Heterocyclic compounds” (Hoffmann-La Roche Inc., priority 2017, dated 2022).

molecular target: T1, MAGL (recombinant wild-type) (Homo sapiens, UniProt Q99685); assay: 4-NPA assay: MAGL inhibitory activity by hydrolysis of 4-nitrophenylacetate, absorbance at 405 nm; format: biochemical; conditions: 4-NPA assay (values without footnote [a])
T1 sequence (Q99685 1-303): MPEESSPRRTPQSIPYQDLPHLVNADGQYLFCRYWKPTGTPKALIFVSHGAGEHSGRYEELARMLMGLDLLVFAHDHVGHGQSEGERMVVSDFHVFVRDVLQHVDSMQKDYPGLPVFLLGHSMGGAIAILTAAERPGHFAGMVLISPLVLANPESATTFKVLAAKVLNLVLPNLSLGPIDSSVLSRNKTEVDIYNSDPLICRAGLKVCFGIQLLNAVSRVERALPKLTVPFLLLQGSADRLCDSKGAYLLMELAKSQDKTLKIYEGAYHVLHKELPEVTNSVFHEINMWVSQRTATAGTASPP
Description: Compounds were profiled for MAGL inhibitory activity by measuring the enzymatic activity of MAGL by following the hydrolysis of 4-nitorphenylacetate resulting in 4-nitrophenol, which absorbs at 405-412 nm (G. G. Muccioli, G. Labar, D M. Lambert, Chem. Bio. Chem. 2008, 9, 2704-2710). This assay is hereinafter abbreviated “4-NPA assay”.
The 4-NPA assay was carried out in 384 well assay plates (black with clear bottom, non-binding surface treated, Corning Ref. 3655) in a total volume of 40 μL. Compound dilutions were made in 100% DMSO (VWR Chemicals 23500.297) in a polypropylene plate in 3-fold dilution steps to give a final concentration range in the assay from 25 μM to 1.7 nM. 1 μL compound dilutions (100% DMSO) were added to 19 μL MAGL (recombinant wild-type) in assay buffer (50 mM TRIS (GIBCO, 15567-027), 1 mM EDTA (Fluka, 03690-100 ml)). The plate was shaked for 1 min at 2000 rpm (Variomag Teleshake) and then incubated for 15 min at RT. To start the reaction, 20 μL 4-Nitrophenlyacetate (Sigma N-8130) in assay buffer with 6% EtOH was added. The final concentrations in the assay were 1 nM MAGL and 300 μM 4-Nitrophenylacetate. After shaking (1 min, 2000 rpm) and 5 min incubation at RT, the absorbance at 405 nm was measured for a first time (Molecular Devices, SpectraMax Paradigm). A second measurement was then done after incubation for 80 min at RT. From the two measurements, the slope was calculated by substracting the first from the second measurement.

| IC50 [nM] | SMILES |
| --- | --- |
| 7.3 | COc1ccc(C(c2ccccn2)C2CCN(C(=O)c3ccc4c(c3)NC(=O)CO4)CC2)cc1OC (single isomer, unassigned) [Example 117, 6-[4-[(S or R)-(3,4-Dimethoxyphenyl)-(2-pyridyl)methyl]piperidine-1-carbonyl]-4H-1,4-benzoxazin-3-one] |
| 4.8 | O=C1COc2ccc(C(=O)N3CCC(C(c4ccc(F)cc4)c4cccc(F)n4)CC3)cc2N1 (single isomer, unassigned) [Example 118, 6-[4-[(S or R)-(4-fluorophenyl)-(6-fluoro-2-pyridyl)methyl]piperidine-1-carbonyl]-4H-1,4-benzoxazin-3-one] |
| 9.1 | O=C1COc2ccc(C(=O)N3CCC(C(c4ccc(F)cc4)c4cccc(F)n4)CC3)cc2N1 (single isomer, unassigned) [Example 119, 6-[4-[(R or S)-(4-Fluorophenyl)-(6-fluoro-2-pyridyl)methyl]piperidine-1-carbonyl]-4H-1,4-benzoxazin-3-one] |
| 0.6 | COc1cccc(C(c2ccc(F)cc2)C2CCN(C(=O)c3ccc4c(c3)NC(=O)CO4)CC2)c1 (single isomer, unassigned) [Example 120, 6-[4-[(R or S)-(4-Fluorophenyl)-(3-methoxyphenyl)methyl]piperidine-1-carbonyl]-4H-1,4-benzoxazin-3-one] |
| 0.4 | COc1cccc(C(c2ccc(F)cc2)C2CCN(C(=O)c3ccc4c(c3)NC(=O)CO4)CC2)c1 (single isomer, unassigned) [Example 121, 6-[4-[(S or R)-(4-Fluorophenyl)-(3-methoxyphenyl)methyl]piperidine-1-carbonyl]-4H-1,4-benzoxazin-3-one] |
| 3.6 | COc1ccc(C(c2cccnc2)C2CCN(C(=O)c3ccc4c(c3)NC(=O)CO4)CC2)cc1OC (single isomer, unassigned) [Example 122, 6-[4-[(R or S)-(3,4-Dimethoxyphenyl)-(3-pyridyl)methyl]piperidine-1-carbonyl]-4H-1,4-benzoxazin-3-one] |
| 8.7 | COc1ccc(C(c2cccnc2)C2CCN(C(=O)c3ccc4c(c3)NC(=O)CO4)CC2)cc1OC (single isomer, unassigned) [Example 123, 6-[4-[(S or R)-(3,4-Dimethoxyphenyl)-(3-pyridyl)methyl]piperidine-1-carbonyl]-4H-1,4-benzoxazin-3-one] |
| 7.7 | COc1ccc(C(c2ccncc2)C2CCN(C(=O)c3ccc4c(c3)NC(=O)CO4)CC2)cc1OC (single isomer, unassigned) [Example 125, 6-[4-[(S or R)-(3,4-Dimethoxyphenyl)-(4-pyridyl)methyl]piperidine-1-carbonyl]-4H-1,4-benzoxazin-3-one] |
| 8.5 | COc1ccc(C(c2ccncc2)C2CCN(C(=O)c3ccc4c(c3)NC(=O)CO4)CC2)cc1OC (single isomer, unassigned) [Example 126, 6-[4-[(R or S)-(3,4-Dimethoxyphenyl)-(4-pyridyl)methyl]piperidine-1-carbonyl]-4H-1,4-benzoxazin-3-one] |
| 0.6 | CS(=O)(=O)c1cccc(C(c2ccccc2)C2CCN(C(=O)c3ccc4c(c3)NC(=O)CO4)CC2)c1 (single isomer, unassigned) [Example 128, 6-[4-[(S or R)-(3-Methylsulfonylphenyl)-phenyl-methyl]piperidine-1-carbonyl]-4H-1,4-benzoxazin-3-one] |
| 12.2 | CS(=O)(=O)c1cccc(C(c2ccccc2)C2CCN(C(=O)c3ccc4c(c3)NC(=O)CO4)CC2)c1 (single isomer, unassigned) [Example 129, 6-[4-[(R or S)-(3-Methylsulfonylphenyl)-phenyl-methyl]piperidine-1-carbonyl]-4H-1,4-benzoxazin-3-one] |
| 0.95 | O=C1COc2cc(F)c(C(=O)N3CCC(C(c4ccccc4)c4ccccc4)CC3)cc2N1 [Example 1, 6-(4-Benzhydrylpiperidine-1-carbonyl)-7-fluoro-4H-1,4-benzoxazin-3-one] |
| 0.5 | O=C1COc2ccc(C(=O)N3CCC(C(c4ccccc4)c4ccccc4)CC3)cc2N1 [Example 2, 6-(4-Benzhydrylpiperidine-1-carbonyl)-4H-1,4-benzoxazin-3-one] |
| 2.03 | O=C1COc2ccc(C(=O)N3CCC(C(c4ccc(F)cc4)c4ccc(F)cc4)CC3)cc2N1 [Example 3, 6-[4-[Bis(4-fluorophenyl)methyl]piperidine-1-carbonyl]-4H-1,4-benzoxazin-3-one] |
| 0.69 | O=C1COc2ccc(C(=O)N3CCC(C(c4ccccc4)c4ccc(Cl)c(Cl)c4)CC3)cc2N1 (centres unmarked) [Example 4, 6-[4-[(3,4-Dichlorophenyl)-phenylmethyl]piperidine-1-carbonyl]-4H-1,4-benzoxazin-3-one] |
| 15 | O=C1COc2ccc(C(=O)N3CCC(C(O)(c4ccccc4)c4ccccc4)CC3)cc2N1 [Example 5, 6-[4-[Hydroxy(diphenyl)methyl]piperidine-1-carbonyl]-4H-1,4-benzoxazin-3-one] |
| 33 | O=C1COc2ccc(C(=O)N3CCC(c4c[nH]c5ccccc45)CC3)cc2N1 [Example 18, 6-[4-(1H-indol-3-yl)piperidine-1-carbonyl]-4H-1,4-benzoxazin-3-one] |
| 3.55 | O=C1COc2ccc(C(=O)N3CCC(c4c[nH]c5ccc(Cl)cc45)CC3)cc2N1 [Example 20, 6-[4-(5-chloro-1H-indol-3-yl)piperidine-1-carbonyl]-4H-1,4-benzoxazin-3-one] |
| 14 | O=C1COc2ccc(C(=O)N3CCC(c4c[nH]c5cc(Cl)ccc45)CC3)cc2N1 [Example 21, 6-[4-(6-chloro-1H-indol-3-yl)piperidine-1-carbonyl]-4H-1,4-benzoxazin-3-one] |
| 8.27 | O=C1COc2ccc(C(=O)N3CCC(c4c[nH]c5ccc(F)cc45)CC3)cc2N1 [Example 22, 6-[4-(5-fluoro-1H-indol-3-yl)piperidine-1-carbonyl]-4H-1,4-benzoxazin-3-one] |
| 10.6 | O=C1COc2ccc(C(=O)N3CCC(c4c[nH]c5cc(F)ccc45)CC3)cc2N1 [Example 23, 6-[4-(6-fluoro-1H-indol-3-yl)piperidine-1-carbonyl]-4H-1,4-benzoxazin-3-one] |
| 20 | COc1ccc2[nH]cc(C3CCN(C(=O)c4ccc5c(c4)NC(=O)CO5)CC3)c2c1 [Example 24, 6-[4-(5-methoxy-1H-indol-3-yl)piperidine-1-carbonyl]-4H-1,4-benzoxazin-3-one] |
| 29 | O=C1COc2ccc(C(=O)N3CCC(c4c[nH]c5cc(C(F)(F)F)ccc45)CC3)cc2N1 [Example 25, 6-[4-[6-(trifluoromethyl)-1H-indol-3-yl]piperidine-1-carbonyl]-4H-1,4-benzoxazin-3-one] |
| 1.8 | Cn1cc(C2CCN(C(=O)c3cc4c(cc3F)OCC(=O)N4)CC2)c2cc(Cl)c(F)cc21 [Example 26, 6-[4-(5-chloro-6-fluoro-1-methylindol-3-yl)piperidine-1-carbonyl]-7-fluoro-4H-1,4-benzoxazin-3-one] |
| 2.8 | Cn1cc(C2CCN(C(=O)c3ccc4c(c3)NC(=O)CO4)CC2)c2cc(Cl)c(F)cc21 [Example 27, 6-[4-(5-chloro-6-fluoro-1-methylindol-3-yl)piperidine-1-carbonyl]-4H-1,4-benzoxazin-3-one] |
| 1 | Cn1cc(C2CCN(C(=O)c3cc4c(cc3F)OCC(=O)N4)CC2)c2cc(Cl)ccc21 [Example 28, 6-[4-(5-chloro-1-methylindol-3-yl)piperidine-1-carbonyl]-7-fluoro-4H-1,4-benzoxazin-3-one] |
